Columns and labels:
CRBN/DDB1 = CRBN/DDB1 (Homo sapiens (Human), UniProt Q96SW2); experiment: HTRF binding assay to CRBN/DDB1; details: read-out: CRBN HTRF IC50
Procedure: The binding potency was determined using HTRF assay technology (Perkin Elmer). Compounds were serially diluted in DMSO and 0.2 μL volume was transferred to white 384-well plate.

ER [1] = biological target: T1, ER (Homo sapiens (Human), UniProt P03372); experiment: In-cell western (ICW) ER degradation assay in MCF-7 cells; assay type: cell-based; details: MCF7, 16 hrs; for DC50: ER degradation; for Dmax: MCF7, maximal ER degradation; for MCF7 Dmax %: maximal ER degradation
Procedure: (§1) ERa degradative activity of compounds can be assessed in MCF-7 and T47D Cells. MCF-7 and T47D cell are seeded and are subsequently treated with the compounds at certain concentrations (e.g., 0.02 to 300 nM). DMSO can be used as vehicle control. Cells are fixed and are blocked with Intercept (PBS) Blocking Buffer (e.g., Li-COR, Odyssey Blocking Buffer), and are stained with ER (e.g., 1:500, Cell signaling) primary antibody for overnight at cold room. Secondary Antibody (e.g., IRDye 800CW Goat anti-Rabbit IgG) and CellTag 700 Stain are added in Intercept (PBS) Blocking Buffer. Finally, cell plate is placed in incubator to dry. Image and signal are captured on Odyssey® DLx Imaging System.
(§2) Day 3: After 16 hrs of compounds treatment, cells were fixed by 4% PFA and permeabilized with elution buffer (0.1% Triton X-100 in 1% PBS Solution). Subsequently, cells were blocked with Intercept (PBS) Blocking Buffer (Li-COR, Odyssey Blocking Buffer), and were stained with ER (1:500, Cell signaling) primary antibody for overnight at cold room.
(§3) Day 4: Remove the buffer, add IRDye 800CW Goat anti-Rabbit IgG Secondary Antibody (1:2000) and CellTag 700 Stain (1:500) in Intercept (PBS) Blocking Buffer. Finally, cell plate is placed in incubator to dry. Image and signal were captured on Odyssey® DLx Imaging System.

ER [2] = biological target: T1, ER; experiment: In-cell western (ICW) ER degradation assay in T47D cells; assay type: cell-based; details: 16 hrs; for DC50: ER degradation; for Dmax: maximal ER degradation
Procedure: as §1, §2, §3

T1 sequence (P03372 whole entry): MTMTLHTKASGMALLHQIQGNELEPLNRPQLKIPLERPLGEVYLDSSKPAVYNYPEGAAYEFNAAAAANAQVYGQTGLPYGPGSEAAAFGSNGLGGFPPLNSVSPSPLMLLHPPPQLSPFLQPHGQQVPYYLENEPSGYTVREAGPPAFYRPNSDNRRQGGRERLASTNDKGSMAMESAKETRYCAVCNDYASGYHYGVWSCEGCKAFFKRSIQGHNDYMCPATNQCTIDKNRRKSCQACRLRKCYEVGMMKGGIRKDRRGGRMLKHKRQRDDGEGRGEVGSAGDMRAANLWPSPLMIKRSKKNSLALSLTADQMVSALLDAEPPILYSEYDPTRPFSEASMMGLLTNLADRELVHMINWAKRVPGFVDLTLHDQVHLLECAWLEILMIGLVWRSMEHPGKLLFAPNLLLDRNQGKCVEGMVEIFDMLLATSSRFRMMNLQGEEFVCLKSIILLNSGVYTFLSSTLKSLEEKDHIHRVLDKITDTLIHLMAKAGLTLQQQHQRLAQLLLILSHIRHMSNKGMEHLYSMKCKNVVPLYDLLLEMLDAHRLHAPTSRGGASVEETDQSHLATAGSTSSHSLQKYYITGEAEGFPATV
CRBN/DDB1, sequence (Q96SW2 whole entry): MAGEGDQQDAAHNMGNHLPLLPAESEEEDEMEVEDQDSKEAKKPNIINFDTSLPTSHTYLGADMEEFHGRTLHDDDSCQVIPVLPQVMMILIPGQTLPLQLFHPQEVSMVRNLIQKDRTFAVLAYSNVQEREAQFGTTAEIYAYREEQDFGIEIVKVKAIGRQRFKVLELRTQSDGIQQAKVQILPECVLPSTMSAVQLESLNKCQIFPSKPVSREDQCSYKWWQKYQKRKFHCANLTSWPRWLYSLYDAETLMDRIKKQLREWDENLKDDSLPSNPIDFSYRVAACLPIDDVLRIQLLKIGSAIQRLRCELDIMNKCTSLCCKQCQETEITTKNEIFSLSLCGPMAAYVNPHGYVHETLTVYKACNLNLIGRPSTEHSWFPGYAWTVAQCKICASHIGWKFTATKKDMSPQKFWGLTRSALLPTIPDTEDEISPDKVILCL
CRBN/DDB1, sequence (Q16531 whole entry partner): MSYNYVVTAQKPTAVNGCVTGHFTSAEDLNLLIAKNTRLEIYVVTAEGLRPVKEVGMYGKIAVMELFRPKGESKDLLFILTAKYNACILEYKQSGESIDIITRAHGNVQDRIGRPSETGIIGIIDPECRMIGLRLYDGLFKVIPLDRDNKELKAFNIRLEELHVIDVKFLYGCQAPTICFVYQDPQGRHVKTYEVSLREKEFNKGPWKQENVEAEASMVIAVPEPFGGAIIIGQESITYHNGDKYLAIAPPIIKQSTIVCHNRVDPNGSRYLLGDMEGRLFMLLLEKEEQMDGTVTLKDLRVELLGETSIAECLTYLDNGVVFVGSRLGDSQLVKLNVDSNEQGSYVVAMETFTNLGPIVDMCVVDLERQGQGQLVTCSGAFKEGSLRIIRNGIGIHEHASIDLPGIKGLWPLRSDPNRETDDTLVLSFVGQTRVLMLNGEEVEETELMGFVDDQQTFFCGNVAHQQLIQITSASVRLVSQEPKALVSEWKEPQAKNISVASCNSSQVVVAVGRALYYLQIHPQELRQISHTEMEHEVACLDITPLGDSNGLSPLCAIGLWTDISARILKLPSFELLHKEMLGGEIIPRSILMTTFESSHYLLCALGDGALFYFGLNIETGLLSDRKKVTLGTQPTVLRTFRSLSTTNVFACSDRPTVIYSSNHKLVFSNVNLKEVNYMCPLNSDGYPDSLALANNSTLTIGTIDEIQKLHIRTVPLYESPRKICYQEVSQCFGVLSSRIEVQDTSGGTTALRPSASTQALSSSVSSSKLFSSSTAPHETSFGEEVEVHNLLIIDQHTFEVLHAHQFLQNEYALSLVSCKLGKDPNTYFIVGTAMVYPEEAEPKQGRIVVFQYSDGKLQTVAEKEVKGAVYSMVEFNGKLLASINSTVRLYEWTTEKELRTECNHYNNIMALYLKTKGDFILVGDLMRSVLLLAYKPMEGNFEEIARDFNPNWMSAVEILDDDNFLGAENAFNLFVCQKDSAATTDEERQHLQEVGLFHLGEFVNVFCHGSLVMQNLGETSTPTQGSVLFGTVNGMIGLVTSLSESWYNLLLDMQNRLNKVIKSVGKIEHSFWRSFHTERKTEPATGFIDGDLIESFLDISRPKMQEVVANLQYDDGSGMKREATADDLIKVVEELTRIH

## Cc1nn(C2CCC(=O)NC2=O)c2ccc(N3CCN(CC4CCN(c5ccc([C@@H]6c7ccc(O)cc7OC[C@@H]6c6ccccc6)cc5F)CC4)CC3)cc12 (single isomer, unassigned) [Compound A14]
CRBN/DDB1
  IC50: 500 to 5000 nM
ER [1]
  DC50: 1 to 10 nM
  Dmax: 25 to 50%

## Cc1nn(C2CCC(=O)NC2=O)c2ccc(N3CCN(CC4CC5(CCN(c6ccc([C@H]7c8ccc(O)cc8OC[C@H]7c7ccccc7)cc6)CC5)C4)CC3)cc12 (single isomer, unassigned) [Compound A17]
CRBN/DDB1
  IC50: 50 to 500 nM
ER [1]
  DC50: < 1 nM
  Dmax: 50 to 75%

## O=C1CCC(N2Cc3cc4c(cc3C2=O)CN(C(=O)CN2CCC3(CC2)CCN(c2ccc([C@@H]5c6ccc(O)cc6OC[C@@H]5c5ccccc5)cc2)CC3)C4)C(=O)N1 (single isomer, unassigned) [Compound A42]
CRBN/DDB1
  IC50: 50 to 500 nM
ER [1]
  DC50: > 100 nM
  Dmax: < 25%

## O=C1CCC(N2Cc3cc4c(cc3C2=O)CN(C(=O)CN2CCC3(CC2)CN(c2ccc([C@H]5c6ccc(O)cc6OC[C@H]5c5ccccc5)cc2)C3)C4)C(=O)N1 (stereo partly drawn) [Compound A48, 3-(6-(2-(2-(4-((3R,4S)-7-hydroxy-3-phenylchroman-4-yl)phenyl)-2,7-diazaspiro[3.5]nonan-7-yl)acetyl)-1-oxo-3,5,6,7-tetrahydropyrrolo[3,4-f]isoindol-2(1H)-yl)piperidine-2,6-dione]
CRBN/DDB1
  IC50: 50 to 500 nM
ER [1]
  DC50: > 100 nM
  Dmax: < 25%

## 2-(2,6-dioxopiperidin-3-yl)-6-(2-(9-(4-((3R,4S)-7-hydroxy-3-phenylchroman-4-yl)phenyl)-3,9-diazaspiro[5.5]undecan-3-yl)acetyl)-6,7-dihydropyrrolo[3,4-flisoindole-1,3(2H,5H)-dione [Compound A43]
CRBN/DDB1
  IC50: > 5000 nM
ER [1]
  DC50: > 100 nM
  MCF7 Dmax %: D (“D”; <25%)

## O=C1CCC(N2Cc3cc4c(cc3C2=O)CN(C(=O)C2CCN(C3CCN(c5ccc([C@H]6c7ccc(O)cc7OC[C@H]6c6ccccc6)cc5)CC3)CC2)C4)C(=O)N1 (single isomer, unassigned) [Compound A80]
CRBN/DDB1
  IC50: 500 to 5000 nM
ER [2]
  DC50: 10 to 100 nM
  Dmax: 50 to 75%

## O=C1CCC(N2Cc3c(ccc4c3OC[C@H]3CN(CC5CCN(c6ccc([C@@H]7c8ccc(O)cc8OC[C@@H]7c7ccccc7)cc6)CC5)CCN43)C2=O)C(=O)N1 (single isomer, unassigned) [Compound A8]
CRBN/DDB1
  IC50: 50 to 500 nM
ER [1]
  DC50: 1 to 10 nM

## O=C1CCC(N2C(=O)c3cc4c(cc3C2=O)CN(C(=O)C2CCN(C3CCN(c5ccc([C@H]6c7ccc(O)cc7OC[C@H]6c6ccccc6)cc5)CC3)CC2)C4)C(=O)N1 (single isomer, unassigned) [Compound A78]
CRBN/DDB1
  IC50: 500 to 5000 nM
ER [2]
  DC50: 10 to 100 nM
  Dmax: 25 to 50%

## COc1nc(C(=O)NC2CCC(=O)NC2=O)ccc1N1CCN(CC2CCN(c3ccc([C@H]4c5ccc(O)cc5OC[C@H]4c4ccccc4)cc3F)CC2)CC1 (single isomer, unassigned) [Compound A102]
CRBN/DDB1
  IC50: 500 to 5000 nM
ER [1]
  DC50: < 1 nM
  Dmax: 50 to 75%

## O=C1CCC(N2C(=O)c3cc4c(cc3C2=O)CN(CC(=O)N2CCC3(CC2)CN(c2ccc([C@H]5c6ccc(O)cc6OC[C@H]5c5ccccc5)cc2)C3)C4)C(=O)N1 (single isomer, unassigned) [Compound A38]
CRBN/DDB1
  IC50: 50 to 500 nM
ER [1]
  DC50: 10 to 100 nM
  Dmax: 25 to 50%

## O=C1CCC(NC(=O)c2ccc(C3CCN(CC4CCN(c5ccc([C@H]6c7ccc(O)cc7OC[C@H]6c6ccccc6)cc5F)CC4)CC3)cn2)C(=O)N1 (single isomer, unassigned) [Compound A101]
CRBN/DDB1
  IC50: > 5000 nM
ER [2]
  DC50: < 1 nM
  Dmax: < 25%

## O=C1CCC(N2Cc3cc4c(cc3C2=O)OC[C@@H]2CN(CC3CC5(CCN(c6ccc([C@H]7c8ccc(O)cc8OC[C@H]7c7ccccc7)cc6)CC5)C3)CCN42)C(=O)N1 (single isomer, unassigned) [Compound A27, 3-((S)-3-((7-(4-((3R,4S)-7-hydroxy-3-phenylchroman-4-yl)phenyl)-7-azaspiro[3.5]nonan-2-yl)methyl)-8-oxo-1,2,3,4,4a,5,8,10-octahydro-9H-pyrazino[1′,2′:4,5][1,4]oxazino[2,3-f]isoindol-9-yl)piperidine-2,6-dione]
CRBN/DDB1
  IC50: 500 to 5000 nM
ER [1]
  DC50: 1 to 10 nM

## COc1cc(N2CCC(CN3CCN4c5ccc6c(c5OC[C@H]4C3)CN(C3CCC(=O)NC3=O)C6=O)CC2)ccc1[C@H]1c2ccc(O)cc2OC[C@H]1c1ccccc1 (stereo partly drawn) [Compound A76, 3-((R)-7-((1-(4-((3R,4S)-7-hydroxy-3-phenylchroman-4-yl)-3-methoxyphenyl)piperidin-4-yl)methyl)-1-oxo-1,3,5,5a,6,7,8,9-octahydro-2H-81pyrazino[1′,2′:4,5][1,4]oxazino[2,3-e]isoindol-2-yl)piperidine-2,6-dione]
CRBN/DDB1
  IC50: 50 to 500 nM
ER [2]
  DC50: > 100 nM
  Dmax: < 25%

## O=C1CCC(N2C(=O)c3cc4c(cc3C2=O)CN(C(=O)CN2CCC3(CC2)CN(c2ccc([C@@H]5c6ccc(O)cc6OC[C@@H]5c5ccccc5)cc2)C3)C4)C(=O)N1 (stereo partly drawn) [Compound A47, 2-(2,6-dioxopiperidin-3-yl)-6-(2-(2-(4-((3S,4R)-7-hydroxy-3-phenylchroman-4-yl)phenyl)-2,7-diazaspiro[3.5]nonan-7-yl)acetyl)-6,7-dihydropyrrolo[3,4-f]isoindole-1,3(2H,5H)-dione]
CRBN/DDB1
  IC50: 500 to 5000 nM
ER [1]
  DC50: 10 to 100 nM
  Dmax: 25 to 50%

## O=C1CCC(N2Cc3c(ccc4c3OC[C@@H]3CN(CC5CCN(c6ccc([C@@H]7c8ccc(O)cc8OC[C@@H]7c7ccccc7)cc6F)CC5)CCN43)C2=O)C(=O)N1 (single isomer, unassigned) [Compound A6]
CRBN/DDB1
  IC50: 50 to 500 nM
ER [1]
  DC50: 1 to 10 nM
  Dmax: 50 to 75%

## O=C1CCC(Nc2ccc3c(c2)OC[C@H]2CN(CC4CC5(CCN(c6ccc([C@@H]7c8ccc(O)cc8OC[C@@H]7c7ccccc7)cc6)CC5)C4)CCN32)C(=O)N1 (stereo partly drawn) [Compound A94, 3-(((R)-3-((7-(4-((3S,4R)-7-hydroxy-3-phenylchroman-4-yl)phenyl)-7-azaspiro[3.5]nonan-2-yl)methyl)-1,2,3,4,4a,5-hexahydrobenzo[b]pyrazino[1,2-d][1,4]oxazin-8-yl)amino)piperidine-2,6-dione]
CRBN/DDB1
  IC50: 500 to 5000 nM
ER [2]
  DC50: 1 to 10 nM
  Dmax: 50 to 75%

## COc1cccc([C@@H]2COc3cc(O)ccc3[C@@H]2c2ccc(N3CCC(CN4CCN5c6ccc7c(c6OC[C@H]5C4)CN(C4CCC(=O)NC4=O)C7=O)CC3)cc2)c1 (single isomer, unassigned) [Compound A34]
CRBN/DDB1
  IC50: 50 to 500 nM
ER [1]
  DC50: 1 to 10 nM
  Dmax: 25 to 50%

## COc1nc(C(=O)NC2CCC(=O)NC2=O)ccc1N1CCN(CC2CC3(CCN(c4ccc([C@H]5c6ccc(O)cc6OC[C@H]5c5ccccc5)cc4)CC3)C2)CC1 (single isomer, unassigned) [Compound A97]
CRBN/DDB1
  IC50: 500 to 5000 nM
ER [2]
  DC50: < 1 nM
  Dmax: 25 to 50%

## O=C1CCC(N2Cc3cc4c(cc3C2=O)CN(C(=O)CN2CC3(CCN(c5ccc([C@H]6c7ccc(O)cc7OC[C@H]6c6ccccc6)cc5)CC3)C2)C4)C(=O)N1 (single isomer, unassigned) [Compound A45]
CRBN/DDB1
  IC50: 50 to 500 nM
ER [1]
  DC50: > 100 nM
  MCF7 Dmax %: D (“D”; <25%)

## O=C1CCC(N2Cc3c(ccc4c3OC[C@H]3CN(CC5CCN(c6ncc([C@@H]7c8ccc(O)cc8OC[C@@H]7c7ccccc7)cn6)CC5)CCN43)C2=O)C(=O)N1 (single isomer, unassigned) [Compound A36]
CRBN/DDB1
  IC50: 50 to 500 nM
ER [1]
  DC50: 10 to 100 nM
  Dmax: 25 to 50%

## O=C1CCC(N2Cc3c(ccc4c3OC[C@@H]3CN(CC5CCN(c6ccc([C@@H]7c8ccc(O)cc8OC[C@@H]7c7ccccc7)cc6)CC5)CCN43)C2=O)C(=O)N1 (single isomer, unassigned) [Compound A7]
CRBN/DDB1
  IC50: 50 to 500 nM
ER [1]
  DC50: 1 to 10 nM
  Dmax: 50 to 75%

## O=C1CCC(N2C(=O)c3cc4c(cc3C2=O)CN(CC(=O)N2CC3(CCN(c5ccc([C@H]6c7ccc(O)cc7OC[C@H]6c6ccccc6)cc5)CC3)C2)C4)C(=O)N1 (single isomer, unassigned) [Compound A39]
CRBN/DDB1
  IC50: 50 to 500 nM
ER [1]
  DC50: > 100 nM
  Dmax: < 25%

## O=C1CCC(N2Cc3c(ccc4c3OC[C@H]3CN(CC5CCN(c6ccc([C@@H]7c8ccc(O)cc8OC[C@@H]7c7ccccc7)cc6F)CC5)CCN43)C2=O)C(=O)N1 (single isomer, unassigned) [Compound A9]
CRBN/DDB1
  IC50: 50 to 500 nM
ER [1]
  DC50: 1 to 10 nM

## O=C1CCC(N2Cc3c(ccc4c3OC[C@@H]3CN(CC5CCN(c6ncc([C@@H]7c8ccc(O)cc8OC[C@@H]7c7ccccc7)cn6)CC5)CCN43)C2=O)C(=O)N1 (single isomer, unassigned) [Compound A20]
CRBN/DDB1
  IC50: < 50 nM

## O=C1CC[C@H](N2Cc3c(ccc4c3OC[C@H]3CN(CC5CC6(CCN(c7ccc([C@@H]8c9ccc(O)cc9OC[C@@H]8c8ccccc8)cc7)CC6)C5)CCN43)C2=O)C(=O)N1 (single isomer, unassigned) [Compound A37]
CRBN/DDB1
  IC50: < 50 nM
ER [1]
  DC50: 1 to 10 nM
  MCF7 Dmax %: C (“C”: 25%-50%)
